Laboratory results published in patent publication US5486526A, “Histamine H3 -receptor antagonists and therapeutic uses thereof” (The University of Toledo, priority 1993, dated 1996).
Read-outs that look alike come from different tables or passages of the source.

Legend:
[1] = tested on: adenosine, excitory or inhibitory amino acid, dopamine, serotonin, or a broad range of petidergic receptors, or to ion channel proteins, peptide factor or …; assay: NOVASCREEN receptor selectivity study (whole panel); assay type: binding; settings: 10^-5 M
EGF = assay: NOVASCREEN receptor selectivity assay: EGF; assay type: binding; settings: 10^-5 M
Substance K = assay: NOVASCREEN receptor selectivity assay: Substance K; assay type: binding; settings: 10^-5 M
NPY = assay: NOVASCREEN receptor selectivity assay: NPY; assay type: binding; settings: 10^-5 M
Somatostatin = assay: NOVASCREEN receptor selectivity assay: Somatostatin; assay type: binding; settings: 10^-5 M
Calcium [2] = assay type: binding; settings: 10^-5 M
Chloride = assay: NOVASCREEN receptor selectivity assay: Chloride; assay type: binding; settings: 10^-5 M
Kainate = assay: NOVASCREEN receptor selectivity assay: Kainate; assay type: binding; settings: 10^-5 M
[3] = Toxicity observed in testing to date; assay type: in vivo; settings: all testing to date, even at high doses
PCP = assay: NOVASCREEN receptor selectivity assay: PCP; assay type: binding; settings: 10^-5 M
VIP = assay: NOVASCREEN receptor selectivity assay: VIP; assay type: binding; settings: 10^-5 M
Inositol Triphosphate [4] = assay: NOVASCREEN receptor selectivity assay: Inositol Triphosphate; assay type: binding; settings: 10^-5 M
GABAB = assay: NOVASCREEN receptor selectivity assay: GABAB; assay type: binding; settings: 10^-5 M
MK-801 = assay: NOVASCREEN receptor selectivity assay: MK-801; assay type: binding; settings: 10^-5 M
Male Sprague-Dawley rats = assay: Food intake in 24-hour-fasted rats; assay type: in vivo, rat
Description: Male Sprague-Dawley rats (200-300 grams) were used in all experiments. Rats were fasted for 24 hours prior to all experiments. Water was provided ad lib. Rats were singly placed in a ventilated plastic circular rat metabolism chamber with a stainless steel wire mess grid flood equipped with food and H2 O attachments. A measured quantity of food (50 grams) and water (100 mls) was supplied through attachments to the metabolism chambers. Food and water intake was measured at the 2, 4 and 6 hour time periods.
Final volumes were 1.0 ml/kg. Subsequently, they were left undisturbed for the experimental period except when the food and H2 O attachments were briefly removed for measurement of food and water intake. At the completion of the experiment, animals were returned to their home cages. The results are found in Table III and FIGS. 7 and 8.

Potassium = assay: NOVASCREEN receptor selectivity assay: Potassium; assay type: binding; settings: 10^-5 M
Substance P = assay: NOVASCREEN receptor selectivity assay: Substance P; assay type: binding; settings: 10^-5 M
Quisqualate = assay: NOVASCREEN receptor selectivity assay: Quisqualate; assay type: binding; settings: 10^-5 M
Glycine [5] = assay: NOVASCREEN receptor selectivity assay: Glycine (inhibitory); assay type: binding; settings: 10^-5 M
NGF = assay: NOVASCREEN receptor selectivity assay: NGF; assay type: binding; settings: 10^-5 M
Serotonin 2 = assay: NOVASCREEN receptor selectivity assay: Serotonin 2; assay type: binding; settings: 10^-5 M
Angiotensin = assay: NOVASCREEN receptor selectivity assay: Angiotensin; assay type: binding; settings: 10^-5 M
H3 -receptor = assay: In vivo assays of H3-receptor antagonist effect (overall)
Description: (§1) The overall strategy to show central nervous system antagonist activity was to challenge effects of the agonist (R)α-methylhistamine. Therefore, the first objective was to establish a dose response curve for behavioral effects of (R)α-methylhistamine. Male albino CF-1 mice weighing 20-30 g were used. Saline or (R)α-methylhistamine in saline was injected i.p. in a volume ≤0.4 ml. […] Animals were scored for the presence (1) or absence (0) of the behavior and the results were reported as the accumulated score for a 30 minute period (maximum score=9).
(§2) To assess the effects of antagonists, they were administered with the (R)α-methylhistamine in saline.

Dopamine 2 = assay: NOVASCREEN receptor selectivity assay: Dopamine 2; assay type: binding; settings: 10^-5 M
[6] = tested on: Protein Kinase C Phorbol Ester; assay: NOVASCREEN receptor selectivity assay: Protein Kinase C, Phorbol Ester; assay type: binding; settings: 10^-5 M
ANF (rat) = assay: NOVASCREEN receptor selectivity assay: ANF (rat); assay type: binding; settings: 10^-5 M
Bombesin = assay: NOVASCREEN receptor selectivity assay: Bombesin; assay type: binding; settings: 10^-5 M
GABAA = assay: NOVASCREEN receptor selectivity assay: GABAA; assay type: binding; settings: 10^-5 M
Benzodiazephine = assay: NOVASCREEN receptor selectivity assay: Benzodiazephine; assay type: binding; settings: 10^-5 M
Male albino CF-1 mice = assay: Behavioral effects in mice: sleep induced by (R)α-methylhistamine; assay type: in vivo, mouse; settings: 25 mg/kg (R)α-methylhistamine
Description: as §1, §2

Serotonin 1 = assay: NOVASCREEN receptor selectivity assay: Serotonin 1; assay type: binding; settings: 10^-5 M
Adenosine = assay: NOVASCREEN receptor selectivity assay: Adenosine; assay type: binding; settings: 10^-5 M
[7] = tested on: H3 receptors in the cortex; assay: Blood-brain barrier penetration by ex vivo binding of [^3 H]-N^α -methylhistamine in rat cortex
Description: Blood-brain barrier penetration in rats was assessed by an ex vivo binding procedure. Young adult male Long-Evans rats were injected i.p. with saline or H3 antagonists in saline. At various times after injection animals were sacrificed, the cortex was removed, homogenized in 50 mM Na/K-phosphate buffer, pH 7.4, and the binding of 1 nM [^3 H]-N^α -methylhistamine was measured using 400 μg protein of the homogenate. Nonspecific binding was accounted for by the inclusion of excess thioperamide in some samples. Under these conditions, the binding was approximately 90% specific.

Dopamine 1 = assay: NOVASCREEN receptor selectivity assay: Dopamine 1; assay type: binding; settings: 10^-5 M
Neurotensin = assay: NOVASCREEN receptor selectivity assay: Neurotensin; assay type: binding; settings: 10^-5 M
Glycine [8] = assay: NOVASCREEN receptor selectivity assay: Glycine (excitatory); assay type: binding; settings: 10^-5 M
CCK Central = assay: NOVASCREEN receptor selectivity assay: CCK Central; assay type: binding; settings: 10^-5 M
Arg-Vasopressin V1 = assay: NOVASCREEN receptor selectivity assay: Arg-Vasopressin V1; assay type: binding; settings: 10^-5 M
[9] = tested on: Adenylate Cyclase Forskolin; assay: NOVASCREEN receptor selectivity assay: Adenylate Cyclase, Forskolin; assay type: binding; settings: 10^-5 M
NMDA = assay: NOVASCREEN receptor selectivity assay: NMDA; assay type: binding; settings: 10^-5 M
Calcium [10] = assay: NOVASCREEN receptor selectivity assay: Calcium (Nifedipine); assay type: binding; settings: 10^-5 M
CCK Peripheral = assay: NOVASCREEN receptor selectivity assay: CCK Peripheral; assay type: binding; settings: 10^-5 M
Inositol Triphosphate [11] = settings: reference compound; cited from earlier work

O=C(CCCCC1CCCCC1)N1CCC(c2c[nH]cn2)CC1 [Compound 1, 4-(1-cyclohexylvaleroyl-4-piperidyl)-1H-imidazole]
binding to panel receptors (in words) [1]: no significant binding | Initial Percent Inhibition (Average; N = 2) (EGF): 18.1% | Initial Percent Inhibition (Average; N = 2) (Substance K): 29.2% | Initial Percent Inhibition (Average; N = 2) (NPY): -8.7% | Initial Percent Inhibition (Average; N = 2) (Somatostatin): 4.1% | Initial Percent Inhibition (Average; N = 2) (Calcium [2]): 1.9% | Initial Percent Inhibition (Average; N = 2) (Chloride): -3.4% | Initial Percent Inhibition (Average; N = 2) (Kainate): 42.1% | toxicity (in words) [3]: no toxicity | Initial Percent Inhibition (Average; N = 2) (PCP): 9.7% | Initial Percent Inhibition (Average; N = 2) (VIP): 17.1% | Initial Percent Inhibition (Average; N = 2) (Inositol Triphosphate [4]): 9.2% | Initial Percent Inhibition (Average; N = 2) (GABAB): 0.0% | Initial Percent Inhibition (Average; N = 2) (MK-801): -8.6% | food intake 2 HR (Male Sprague-Dawley rats; 3 mg/kg i.p.): 5.687 | food intake 4 HR (Male Sprague-Dawley rats; 3 mg/kg i.p.): 7.333 | food intake 2 HR (Male Sprague-Dawley rats; 10 mg/kg i.p.): 2.000 | food intake 4 HR (Male Sprague-Dawley rats; 10 mg/kg i.p.): 5.167 | food intake 2 HR (Male Sprague-Dawley rats; 30 mg/kg i.p.): 1.167 | food intake 4 HR (Male Sprague-Dawley rats; 30 mg/kg i.p.): 2.333 | food intake 6 HR (Male Sprague-Dawley rats; 30 mg/kg i.p.): 5.000 | Initial Percent Inhibition (Average; N = 2) (Potassium): 7.7% | Initial Percent Inhibition (Average; N = 2) (Substance P): 20.0% | Initial Percent Inhibition (Average; N = 2) (Quisqualate): -1.8% | Initial Percent Inhibition (Average; N = 2) (Glycine [5]): 17.4% | Initial Percent Inhibition (Average; N = 2) (NGF): 17.1% | Initial Percent Inhibition (Average; N = 2) (Serotonin 2): 10.5% | Initial Percent Inhibition (Average; N = 2) (Angiotensin): 6.5% | H3 -receptor antagonist effect (in words) (H3 -receptor): effective as an H3 -receptor antagonist | Initial Percent Inhibition (Average; N = 2) (Dopamine 2): 3.5% | Initial Percent Inhibition (Average; N = 2) [6]: 0.9% | Initial Percent Inhibition (Average; N = 2) (ANF (rat)): 0.1% | Initial Percent Inhibition (Average; N = 2) (Bombesin): -5.5% | Initial Percent Inhibition (Average; N = 2) (GABAA): 0.6% | Initial Percent Inhibition (Average; N = 2) (Benzodiazephine): 2.7% | soporific effect of (R)α-methylhistamine (in words) (Male albino CF-1 mice): inhibited the soporific effect | Initial Percent Inhibition (Average; N = 2) (Serotonin 1): -3.6% | Initial Percent Inhibition (Average; N = 2) (Adenosine): -3.0% | penetration of the blood-brain barrier (in words) ([7]; 50 and 70 mg/kg, one hour after injection): penetrates the blood-brain barrier one hour after injections | penetration of the blood-brain barrier compared with thioperamide (in words) ([7]; taking into account the difference in affinity): penetrates the blood-brain barrier at least as well as thioperamide | Initial Percent Inhibition (Average; N = 2) (Dopamine 1): 6.4% | Initial Percent Inhibition (Average; N = 2) (Neurotensin): -10.5% | Initial Percent Inhibition (Average; N = 2) (Glycine [8]): 1.8% | Initial Percent Inhibition (Average; N = 2) (CCK Central): 18.6% | Initial Percent Inhibition (Average; N = 2) (Arg-Vasopressin V1): 10.1% | Initial Percent Inhibition (Average; N = 2) [9]: 2.1% | Initial Percent Inhibition (Average; N = 2) (NMDA): -4.5% | Initial Percent Inhibition (Average; N = 2) (Calcium [10]): 8.1% | Initial Percent Inhibition (Average; N = 2) (CCK Peripheral): 6.9%

O=P(O)(O)O[C@@H]1[C@H](O)[C@H](O)[C@@H](OP(=O)(O)O)[C@H](OP(=O)(O)O)[C@H]1O [IP3]
Ki (Inositol Triphosphate [11]): 12.5 nM
